Molecular target: T1, 5-epi-aristolochene synthase (TEAS) (Nicotiana tabacum, UniProt Q40577)
T1 sequence (Q40577 1-548): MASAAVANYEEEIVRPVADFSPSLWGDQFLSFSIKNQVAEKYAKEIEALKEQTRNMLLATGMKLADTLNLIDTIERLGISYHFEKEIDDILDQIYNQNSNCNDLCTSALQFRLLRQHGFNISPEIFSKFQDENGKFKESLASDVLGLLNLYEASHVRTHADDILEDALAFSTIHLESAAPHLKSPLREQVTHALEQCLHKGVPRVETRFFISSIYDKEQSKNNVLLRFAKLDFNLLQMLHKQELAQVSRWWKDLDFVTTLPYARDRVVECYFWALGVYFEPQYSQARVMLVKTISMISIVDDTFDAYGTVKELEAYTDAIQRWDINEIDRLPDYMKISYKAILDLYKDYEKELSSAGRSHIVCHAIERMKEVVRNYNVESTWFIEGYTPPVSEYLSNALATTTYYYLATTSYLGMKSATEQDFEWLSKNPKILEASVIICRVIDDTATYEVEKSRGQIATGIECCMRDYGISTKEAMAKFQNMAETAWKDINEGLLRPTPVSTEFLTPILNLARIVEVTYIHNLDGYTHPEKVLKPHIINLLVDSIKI
Assay: crystal structure
Format: biochemical

## C/C(=C\COP(=O)(O)OP(=O)(O)O)CC/C=C(\C)CNc1ccccc1 [compound 4, AGPP]
  Ki: 380 nM
